In publication PMC12142043, “Cell-based high-content approach for SARS-CoV-2 neutralization identifies unique monoclonal antibodies and PI3K pathway inhibitors” (Frontiers in Cell and Developmental Biology, 2025):
Like-named read-outs stand apart in the source and are kept apart here.

Tests used:
Calu-3 cells = assay: cells; conditions: Homo sapiens, Calu-3, read-out: EC50 (μM) Cell count
[1] = test system: SARS-CoV-2 (USA-WA1/2020) in Calu-3 cells; assay: microbe, parasite or virus in culture; assay type: cell-based
[2] = test system: SARS-CoV-2 (USA-WA1/2020) in Calu-3 cells; assay type: cell-based
[3] = high dose (10 µM), Calu-3, 48 h
[4] = low dose (100 nM), Calu-3, 48 h

Molecule | dsRNA signal, AU High [2, 3] | dsRNA signal, AU Low [2, 4] | other results
O=S(=O)(c1cccc2cnccc12)N1CCCNCC1 [Fasudil] |  |  | EC50 (Calu-3 cells): 1.22 µM; EC50 ([1]; Severe acute respiratory syndrome coronavirus 2, Calu-3, 48 h, […], above 30 μM reported as >30, read-out: EC50 (μM) dsRNA): 0.0124 µM; Selectivity index ([1]; fold: cell count EC50 over dsRNA EC50): 98.072
COc1cc(C(=O)NC2CCN(C)CC2)c(F)cc1Nc1ncc2c(n1)N(C1CCCC1)CC(F)(F)C(=O)N2C [TAK960] | 9929.6 AU | 56355.2 AU | 
N#Cc1c(Oc2ccc(F)c(NC(=O)Cc3cccc(C(F)(F)F)c3)c2)ccc2nc(NC(=O)C3CC3)sc12 [TAK-632] | 12667.4 AU | 8796.8 AU | 
CCc1nc(-c2cccc(C)c2)c(-c2ccnc(NC(=O)c3ccccc3)c2)s1 [TAK-715] | 42569.8 AU | 29513.1 AU | 
CCS(=O)(=O)c1cccc(-c2cc(C(=O)NC3CCN(C)CC3)c(C)c3[nH]c4ncc(C)cc4c23)c1 [TAK-901] | 42486.6 AU | 61332.6 AU | 
Brc1c(Br)c(Br)c2n[nH]nc2c1Br [TBB] | 3323.3 AU | 16520.0 AU | 
COc1ccc(C(=O)Nc2sc3c(c2C(N)=O)CCCC3)cc1OC [TCS 359] | 5896.0 AU | 63380.8 AU | 
N#Cc1c(NC(=O)c2cccc3ccccc23)sc2c1CCCC2 [TCS JNK 5a] | 1144.9 AU | 17159.4 AU | 
N#Cc1c(-c2ccccc2)cc(-c2cc(Br)ccc2O)[nH]c1=O [TCS PIM-1 1] | 1935.2 AU | 16463.0 AU | 
O=C1NC(=O)/C(=C/c2cccc(C(F)(F)F)c2)S1 [TCS-PIM-1-4a] | 1917.5 AU | 12250.9 AU | 
Cn1sc(=O)n(Cc2ccccc2)c1=O [TDZD-8] | 7580.3 AU | 26092.4 AU | 
CCN1/C(=C/C(C)=O)Sc2ccc(OC)cc21 [TG003] | 1126.7 AU | 61445.9 AU | 
Nc1nc(N)c2nc(-c3cccc(O)c3)c(-c3cccc(O)c3)nc2n1 [TG100-115] | 401.6 AU | 17405.4 AU | 
Cc1ccccc1CN1C(=O)C2=C(CCN(Cc3ccccc3)C2)N2CCN=C12 [TIC10] | 0.0 AU | 1481.6 AU | 
Cc1[nH]c(/C=C2\C(=O)Nc3ccccc32)c(C)c1CCC(=O)O [TSU-68 (SU6668,Orantinib)] | 4841.4 AU | 21696.8 AU | 
Nc1cccc(-c2cc3c(Oc4cccc(O)c4)ncnc3[nH]2)c1 [TWS119] | 48959.2 AU | 29417.1 AU | 
COc1cc2c(N3CCN(C(=O)Nc4ccc(OC(C)C)cc4)CC3)ncnc2cc1OCCCN1CCCCC1.Cl [Tandutinib (MLN518) HCl] | 42444.4 AU | 13615.8 AU | 
O=C(NCc1ccccc1)c1csc(Nc2ccncn2)n1 [Thiazovivin] | 2364.1 AU | 26827.3 AU | 
O=c1sn(-c2cccc3ccccc23)c(=O)n1Cc1ccccc1 [Tideglusib] | 352.7 AU | 1603.7 AU | 
COc1ccc2cc(-c3nc(-c4ccc([S+](C)[O-])cc4)[nH]c3-c3ccncc3)ccc2c1 (stereo not drawn) [Tie2 kinase inhibitor] | 4787.9 AU | 16594.7 AU | 
COc1cc2nccc(Oc3ccc(NC(=O)Nc4cc(C)on4)c(Cl)c3)c2cc1OC [Tivozanib (AV-951)] | 40142.9 AU | 36133.0 AU | 

Molecule | dsRNA signal, AU High [2, 3] | dsRNA signal, AU Low [2, 4] | other results
C[C@@H]1CCN(C(=O)CC#N)C[C@@H]1N(C)c1ncnc2[nH]ccc12.O=C(O)CC(O)(CC(=O)O)C(=O)O [Tofacitinib (CP-690550) Citrate] | 57107.2 AU | 61115.5 AU | 
C[C@@H]1CCN(C(=O)CC#N)C[C@@H]1N(C)c1ncnc2[nH]ccc12 [Tofacitinib (CP-690550,Tasocitinib)] | 6571.2 AU | 4801.5 AU | 
CCC(=O)N1CCN(c2ccc(-n3c(=O)ccc4cnc5ccc(-c6cnc7ccccc7c6)cc5c43)cc2C(F)(F)F)CC1 [Torin 1] | 1083.7 AU | 14896.3 AU | 
CC(=O)Nc1cccc(-n2c(=O)n(C3CC3)c(=O)c3c(Nc4ccc(I)cc4F)n(C)c(=O)c(C)c32)c1.C[S+](C)[O-] [Trametinib DMSO solvate] |  |  | dsRNA signal, AU High [2]: 10918.5; dsRNA signal, AU Low [2]: 24279.8
NC(=S)N/N=C/c1ncccc1N [Triapine] | 0.0 AU | 17637.1 AU | 
CC(C)(C)c1cc(C=C(C#N)C#N)cc(C(C)(C)C)c1O [Tyrphostin 9] | 58.0 AU | 17328.1 AU | 
CC(C)(C)c1cc(/C=C(\C#N)C(N)=S)cc(C(C)(C)C)c1O [Tyrphostin AG 879] | 54.0 AU | 6760.3 AU | 
COc1cc2ncc(-c3ccccc3)nc2cc1OC [Tyrphostin AG 1296] | 2647.7 AU | 18881.3 AU | 
CCCCNc1ncc2c(-c3ccc(CN4CCN(C)CC4)cc3)cn([C@H]3CC[C@H](O)CC3)c2n1 [UNC2025] | 55553.7 AU | 67297.4 AU | 
CCCCNc1ncc(C(=O)NCc2ccc(-n3ccnc3)cc2)c(NC2CCC(O)CC2)n1 (stereo not drawn) [UNC2881] | 446.4 AU | 42094.2 AU | 
CN1CCN(Cc2ccc(-c3cnc4[nH]cc(-c5ccc6[nH]ccc6c5)c4c3)cc2)CC1 [URMC-099] | 20784.2 AU | 7905.7 AU | 
O.O.O.O=C(O)c1ncccc1O.O=C(O)c1ncccc1O.[O]=[V] [VO-Ohpic trihydrate] | 28838.2 AU | 7631.3 AU | 
c1cncc(CN2CCC(n3ncc4c(N5CCOCC5)nc(-c5ccc6[nH]ccc6c5)nc43)CC2)c1 [WAY-600] | 1003.4 AU | 67106.4 AU | 
COc1cc2ncnc(Nc3ccc(O)c(Br)c3)c2cc1OC [WHI-P154] | 5163.1 AU | 0.0 AU | 
CNC(=O)Nc1ccc(-c2nc(N3CC4CCC(C3)O4)c3cnn(C4CCC5(CC4)OCCO5)c3n2)cc1 [WYE-125132 (WYE-132)] | 4894.7 AU | 21738.1 AU | 
C=CC(=O)Nc1cccc(Oc2nc(Nc3ccc(N4CCN(C)CC4)cc3)ncc2Cl)c1 [WZ3146] | 23148.6 AU | 16337.5 AU | 
CCC(=O)Nc1cccc(Oc2nc(Nc3ccc(N4CCN(C)CC4)cc3OC)ncc2Cl)c1 [WZ4003] | 30589.4 AU | 38446.0 AU | 
COc1cc(O)c2c(c1)oc(=O)c1c3cc(O)c(O)cc3oc21 [Wedelolactone] | 9001.4 AU | 16105.5 AU | 
COc1ccc(Cl)c(Nc2nc3ccccc3nc2NS(=O)(=O)c2cccc(NC(=O)C(C)(C)N)c2)c1 [XL147] | 6847.8 AU | 47539.1 AU | 
Cc1c(C(=O)N2CCOc3ccc(-c4ccc(N)nc4)cc3C2)ccc(S(C)(=O)=O)c1F [XL388] | 5203.5 AU | 16443.4 AU | 
CCOc1cc(N2CCC(O)CC2)ccc1Nc1ncc2c(n1)N(C)c1ccccc1C(=O)N2C [XMD8-92] | 359.5 AU | 30524.1 AU | 

Molecule | dsRNA signal, AU High [2, 3] | dsRNA signal, AU Low [2, 4] | other results
C[C@@H](N)[C@H]1CC[C@H](C(=O)Nc2ccncc2)CC1 [Y-27632] | 3508.5 AU | 46665.7 AU | 
Cc1cc(C)nc(NS(=O)(=O)c2ccc(NC(=S)NC(=O)COc3ccc(Br)cc3Cl)cc2)n1 [ZCL278] | 9541.3 AU | 41590.0 AU | 
CC(C)N(CCC(=O)c1ccc2ccccc2c1)Cc1ccccc1.Cl [ZM 39923 HCl] | 21395.1 AU | 2858.2 AU | 
FC(F)c1nc2ccccc2n1-c1nc(N2CCOCC2)nc(N2CCOCC2)n1 [ZSTK474] | 6069.9 AU | 23073.5 AU | 
CO[C@H]1C[C@@H]2CC[C@@H](C)[C@@](O)(O2)C(=O)C(=O)N2CCCC[C@H]2C(=O)O[C@H]([C@H](C)C[C@@H]2CC[C@H](n3cnnn3)[C@H](OC)C2)CC(=O)[C@H](C)/C=C(\C)[C@@H](O)[C@@H](OC)C(=O)[C@H](C)C[C@H](C)/C=C/C=C/C=C/1C [Zotarolimus(ABT-578)] | 11435.6 AU | 1864.8 AU | 
AG-18 | 29672.3 AU | 14434.9 AU | 
AZD4547 | 14827.8 AU | 3634.0 AU | 
Anacardic acid | 12779.5 AU | 44703.4 AU | 
CHIR-98014 |  |  | dsRNA signal, AU High [2]: 63043.9; dsRNA signal, AU Low [2]: 37241.6
Ginkgolide C | 4330.9 AU | 14963.6 AU | 
HG-10-102-01 | 14367.4 AU | 32713.5 AU | 
IC-87114 | 0.0 AU | 60540.6 AU | 
KN-92 | 8269.0 AU | 30018.5 AU | 
KN-93 | 14156.8 AU | 6603.8 AU | 
SC 79 | 17618.8 AU | 5138.7 AU | 
TA 01 | 672.4 AU | 13985.5 AU | 
Telatinib (BAY 57-9352) | 46565.4 AU | 19646.6 AU | 
VX-11e | 6059.4 AU | 11825.4 AU | 
kb NB 142-70 | 958.0 AU | 2847.9 AU | 
